According to patent US20240255509A1, “COMPOSITIONS AND METHODS RELATED TO K180 DIMETHYLATED H1.0 PROTEIN” (Aelan Cell Technologies, Inc., priority 2016, published 2024):

What was measured:
PARP-1 = target: T1, PARP-1 (Homo sapiens, UniProt P09874); test: Western blot of PARP-1 inhibitor activity in whole cell lysates (poly-(ADP)-ribose levels); assay type: cell-based; conditions: 1 μM for 24 hours
T1 construct: endogenous in cells; host or cells: hADSCs (inferred)
From the text: (§1) Material for western blot analysis (cultured cells or tissue) was lysed in ice-cold RIPA lysis buffer (Thermo Scientific 89900) and sonicated using a Covaris S2 sonicator (10% duty cycle, Intensity 5, Bursts per minute 100, 120 seconds). Total protein concentration in each sample was quantified using Quick Start Bradford 1× Dye Reagent (BioRad, 5000205) following manufacturer's protocol. Samples were then mixed with NUPAGE LDS sample loading buffer (ThermoFisher, NP0007) and NUPAGE sample reducing buffer (ThermoFisher, NP0004), and heat denatured at 70° C. for 10 minutes. Proteins were separated on 4-12% precast polyacrylamide gels (ThermoFisher, NP0321) by electrophoresis and transferred to 0.45 μm nitrocellulose membrane. […] Proteins were detected with HRP secondary antibodies listed above for 1 hour at RT followed by ECL Western Blotting Substrate (ThermoFisher, 32106) using manufacturer's instructions. […]
(§2) To further assess if H1.0K180 methylation is dependent on the DNA damage repair pathway protein PARP-1 activity, western blot analysis was performed according to methods described in Example 1, to examine chromatin-bound H1.0K180me2 and γH2A.X upon treatment with bleomycin. […] Thus it was determined that H1.0K180 methylation is independent of DNA damage repair pathway protein PARP-1 activity

[1] = system: chromatin-bound H1.0K180me2 and γH2A.X; test: Western blot of chromatin-bound H1.0K180me2 and γH2A.X upon bleomycin with PARP-1 inhibition; assay type: cell-based, human; conditions: 1 μM for 24 hours, bleomycin treatment
From the text: as §1, §2

H1.0K180me2 [2] = test: Western blot for H1.0K180me2 in SR hADSCs treated with bleomycin after rapamycin or everolimus pretreatment; assay type: cell-based, human; conditions: 500 nM, 24 hours pretreatment, then bleomycin 2 hours
From the text: as §1
To test if rapamycin derivatives may block H1.0K180me2 appearance upon DNA damage, SR hADSCs were treated with bleomycin for 2 hours with or without pretreatment with rapamycin or everolimus (a derivative of rapamycin) for 24 hours. Cells were then lysed and analyzed be western blot for H1.0K180me2, γH2A.X and β-Actin, according to methods described in Example 1.

histone H1.0 mRNA = test: RT-PCR analysis of histone H1.0 mRNA expression in hADSCs after bleomycin; assay type: cell-based, human
Experimental: (§3) For replicative senescence, hADSCs were grown in culture until reaching replicative exhaustion (PD 41-46). For acute DNA damage conditions, SR hADSCs (PD 4-10) were treated with 50 μg/ml bleomycin sulfate (Cayman Chemical, 13877) in growth media for 2 hours. For genotoxic stress-induced senescence, SR hADSCs (PD 4-10) were treated with 50 μg/ml bleomycin sulfate (Cayman Chemical, 13877) in growth media for 2 hours then washed with PBS and given fresh growth media without bleomycin. Cells were then grown for 3 days before collection.
RT-PCR analysis of histone H1.0 mRNA expression was performed on total RNA derived from self-replicating hADSCs, hADSCs treated with bleomycin for 2 hours (acute DNA damage) and hADSCs treated with bleomycin and allowed to senesce for 3 days (genotoxic stress-induced senescence). H1.0 mRNA expression increases over 2-fold upon acute DNA damage, and remains elevated (1.5-fold over SR) upon genotoxic stress induced senescence.

secreted H1.0K180me2 = test: Slot blot of conditioned medium of hADSCs after bleomycin (secretion); assay type: cell-based, human
Experimental: 0.5 μl of serum sample or known amounts of synthesized peptide were diluted in 200 μl TBS. Samples were then heat denatured at 70° C. for 10 minutes before being transferred to nitrocellulose membrane using a vacuum manifold slot blot apparatus (BioRad, 1706542). The membrane was blocked with 5% non-fat milk in PBS-T for 30 minutes at RT then immunoblotted with the above primary antibodies at 4° C. overnight. Proteins were detected with HRP secondary antibodies listed above for 1 hour at RT followed by ECL Western Blotting Substrate (ThermoFisher, 32106) using manufacturer's instructions. All washes between steps were with PBS-T. Membranes were imaged with Omega LUM-C imaging system (Gel Company). Slot blot bands for each sample were then quantified using ImageJ.
This signifies secretion out of the cells. An increase in DNA fragmentation factor (DFFB/DFF40/CAD) secretion upon GSI-SEN was seen, in a similar manner to H1.0K180me2 starting 48 hours after treatment (FIG. 7B).
SR hADSCs, hADSCs treated with bleomycin for 2 hours (acute DNA damage) and hADSCs treated with bleomycin and allowed to senesce for 3 days (genotoxic stress induced senescence) were lysed and fractionated into soluble and chromatin bound fractions. These fractions were then subjected to LC-MS/MS analysis. Peptide expression levels were taken as the total area under the LC-MS/MS relative intensity curve, and individual peptides were unambiguously assigned to proteins using Pinpoint software, version 1.4 (Thermo Scientific). The areas of all peptides assigned to an individual protein were summed to yield protein expression levels, which were normalized against the total protein library size for each sample. For each cellular fraction, H1.0 peptide abundance is represented as a percentage of total H1.0 peptides observed in each condition. Normalized absolute values of H1.0 peptide levels in each fraction were also shown. […] Culture media from SR hADSCs treated with bleomycin was collected for slot blot analysis with α-H1.0 and α-H1.0K180me2 antibodies to assess secretion of H1.0 to the extracellular matrix (ECM). The experiment was carried out according to methods described in Example 1.

H1.0K180me2 [3] = test: H1.0K180me2 on chromatin (western blot) and localization in hADSCs after bleomycin; assay type: cell-based, human
Experimental: as §3
as §1, with “minutes.” for “minutes. Proteins were separated on 4-12% precast polyacrylamide gels (ThermoFisher, NP0321) by electrophoresis and transferred to 0.45 μm nitrocellulose membrane.”

Chromatin bound H1.0 = test: LC-MS/MS of soluble and chromatin bound fractions of hADSCs after bleomycin; assay type: cell-based, human
Experimental: as §3
SR hADSCs, hADSCs treated with bleomycin for 2 hours (acute DNA damage) and hADSCs treated with bleomycin and allowed to senesce for 3 days (genotoxic stress induced senescence) were lysed and fractionated into soluble and chromatin bound fractions. These fractions were then subjected to LC-MS/MS analysis. Peptide expression levels were taken as the total area under the LC-MS/MS relative intensity curve, and individual peptides were unambiguously assigned to proteins using Pinpoint software, version 1.4 (Thermo Scientific). The areas of all peptides assigned to an individual protein were summed to yield protein expression levels, which were normalized against the total protein library size for each sample. For each cellular fraction, H1.0 peptide abundance is represented as a percentage of total H1.0 peptides observed in each condition. […]

H1.0K180me2 [4] = test: Western blot for H1.0K180me2 in SR hADSCs after bleomycin or temozolomide; assay type: cell-based, human; conditions: SR hADSCs treated for 2 hours, 50 μg/ml
From the text: Material for western blot analysis (cultured cells or tissue) was lysed in ice-cold RIPA lysis buffer (Thermo Scientific 89900) and sonicated using a Covaris S2 sonicator (10% duty cycle, Intensity 5, Bursts per minute 100, 120 seconds). Total protein concentration in each sample was quantified using Quick Start Bradford 1× Dye Reagent (BioRad, 5000205) following manufacturer's protocol. Samples were then mixed with NUPAGE LDS sample loading buffer (ThermoFisher, NP0007) and NUPAGE sample reducing buffer (ThermoFisher, NP0004), and heat denatured at 70° C. for 10 minutes. Proteins were separated on 4-12% precast polyacrylamide gels (ThermoFisher, NP0321) by electrophoresis and transferred to 0.45 μm nitrocellulose membrane. The membrane was blocked with 5% non-fat milk in PBS-T for 30 minutes at RT then immunoblotted with the above primary antibodies at 4° C. overnight. Proteins were detected with HRP secondary antibodies listed above for 1 hour at RT followed by ECL Western Blotting Substrate (ThermoFisher, 32106) using manufacturer's instructions. All washes between steps were with PBS-T. Membranes were imaged with Omega LUM-C imaging system (Gel Company). […]
SR hADSCs were treated for 2 hours with bleomycin or temozolomide, a compound that triggers base excision repair pathways. Cells were then lysed and analyzed be western blot for H1.0K180me2, γH2A.X and β-Actin.

[5] = acute DNA damage: bleomycin for 2 hours
[6] = genotoxic stress induced senescence: bleomycin, then 3 days

T1 sequence (P09874 whole entry): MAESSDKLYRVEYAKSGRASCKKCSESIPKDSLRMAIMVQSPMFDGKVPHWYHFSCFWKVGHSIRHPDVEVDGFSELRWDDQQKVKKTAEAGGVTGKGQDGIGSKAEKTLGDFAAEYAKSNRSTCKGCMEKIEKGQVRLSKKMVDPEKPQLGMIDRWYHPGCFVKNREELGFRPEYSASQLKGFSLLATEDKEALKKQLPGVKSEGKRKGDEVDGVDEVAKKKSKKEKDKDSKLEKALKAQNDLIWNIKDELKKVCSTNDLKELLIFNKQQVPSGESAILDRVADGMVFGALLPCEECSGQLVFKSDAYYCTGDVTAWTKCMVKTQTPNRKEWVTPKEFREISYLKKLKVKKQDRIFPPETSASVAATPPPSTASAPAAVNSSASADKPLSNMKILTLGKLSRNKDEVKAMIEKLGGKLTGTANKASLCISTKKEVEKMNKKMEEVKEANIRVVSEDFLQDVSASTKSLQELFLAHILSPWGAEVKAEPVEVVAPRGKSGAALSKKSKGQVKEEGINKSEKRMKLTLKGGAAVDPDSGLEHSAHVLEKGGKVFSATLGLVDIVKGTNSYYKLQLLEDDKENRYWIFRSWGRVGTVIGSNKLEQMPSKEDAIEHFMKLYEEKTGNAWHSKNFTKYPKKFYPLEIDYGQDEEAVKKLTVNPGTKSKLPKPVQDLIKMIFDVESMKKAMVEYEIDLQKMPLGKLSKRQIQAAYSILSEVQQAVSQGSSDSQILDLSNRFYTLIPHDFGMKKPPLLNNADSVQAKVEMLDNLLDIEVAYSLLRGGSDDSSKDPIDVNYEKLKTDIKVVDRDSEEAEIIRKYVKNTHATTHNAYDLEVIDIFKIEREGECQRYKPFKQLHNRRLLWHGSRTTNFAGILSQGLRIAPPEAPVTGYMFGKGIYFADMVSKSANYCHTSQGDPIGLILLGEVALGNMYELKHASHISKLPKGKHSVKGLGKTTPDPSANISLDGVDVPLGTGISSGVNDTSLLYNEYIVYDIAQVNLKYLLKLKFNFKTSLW

With `CN(C)Cc1ccc(-c2nc3cccc4c3n2CCNC4=O)cc1` [AG14361] the “poly-(ADP)-ribose (PAR) levels increased upon bleomycin treatment” value (PARP-1) was “abolished”, the “accumulation of chromatin-bound H1.0K180me2” value [1] was “increased accumulation” and the “accumulation of chromatin-bound γH2A.X” value [1] was “increased accumulation”.

In the case of `CO[C@H]1C[C@@H]2CC[C@@H](C)[C@@](O)(O2)C(=O)C(=O)N2CCCC[C@H]2C(=O)O[C@H]([C@H](C)C[C@@H]2CC[C@@H](OCCO)[C@H](OC)C2)CC(=O)[C@H](C)/C=C(\C)[C@@H](O)[C@@H](OC)C(=O)[C@H](C)C[C@H](C)/C=C/C=C/C=C/1C` [everolimus, Everolimus], the “appearance of H1.0K180me2 upon bleomycin treatment” value (H1.0K180me2 [2]) is reported as “reduced the appearance of H1.0K180me2”.

In the case of bleomycin sulfate, the “H1.0 mRNA expression increase over SR” value (histone H1.0 mRNA; [5]) is reported as “over 2 fold”, the “H1.0 mRNA expression increase over SR” value (histone H1.0 mRNA; [6]) is reported as 1.5 fold and the “DNA fragmentation factor (DFFB/DFF40/CAD) secretion” value (secreted H1.0K180me2; GSI-SEN, starting 48 hours after treatment) is reported as “increase”. For the same compound, the “secretion of H1.0K180me2 and DFFB upon onset of acute DNA damage (ADD)” value (secreted H1.0K180me2; acute DNA damage) was “None of the protein is secreted in measurable quantities”, the “secreted H1.0K180me2 in cell culture media” value (secreted H1.0K180me2; after 24 hours of bleomycin treatment) was “readily detected” and the “time of maximal H1.0K180me2 secretion into conditioned medium” value (secreted H1.0K180me2; time course after bleomycin) was no more than 48 h. The “localization of H1.0K180me2” value (H1.0K180me2 [3]; SR hADSCs treated with bleomycin) was “localized to the cytoplasm”, the “methylation of H1.0K180 on chromatin” value (H1.0K180me2 [3]; bleomycin for 2 hours, chromatin bound fraction, western blot) was “methylation of H1.0K180 on the chromatin” and the “Chromatin bound H1.0, % of total H1.0 peptides” value (Chromatin bound H1.0; [5]) was roughly 60%. For the same compound, the “Chromatin bound H1.0, % of total H1.0 peptides” value (Chromatin bound H1.0; [6]) was roughly 30% and the “induction of H1.0K180me2 methylation” value (H1.0K180me2 [4]) was “capable of inducing H1.0K180me2 methylation”.
